Biological target: ATR kinase (full-length ATR) (Homo sapiens (Human), UniProt Q13535)
Assay: ATR inhibition assay (radioactive-phosphate incorporation)
Type: biochemical
Settings: Ki(app), 5 nM full-length ATR, 10 μM ATP, 25° C.
Outline: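 Radiometric 33P incorporation by 5 nM full-length ATR into 800 μM target peptide with 10 μM [γ-33P]ATP, in 50 mM Tris/HCl pH 7.5, 10 mM MgCl2, 1 mM DTT, 7% DMSO, 25° C. Compound pre-incubated 10 minutes; reaction stopped after 24 hours, captured on phosphocellulose. Ki(app) from non-linear regression of initial rates.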

Chain of ATR kinase (full-length ATR) (Q13535 whole entry): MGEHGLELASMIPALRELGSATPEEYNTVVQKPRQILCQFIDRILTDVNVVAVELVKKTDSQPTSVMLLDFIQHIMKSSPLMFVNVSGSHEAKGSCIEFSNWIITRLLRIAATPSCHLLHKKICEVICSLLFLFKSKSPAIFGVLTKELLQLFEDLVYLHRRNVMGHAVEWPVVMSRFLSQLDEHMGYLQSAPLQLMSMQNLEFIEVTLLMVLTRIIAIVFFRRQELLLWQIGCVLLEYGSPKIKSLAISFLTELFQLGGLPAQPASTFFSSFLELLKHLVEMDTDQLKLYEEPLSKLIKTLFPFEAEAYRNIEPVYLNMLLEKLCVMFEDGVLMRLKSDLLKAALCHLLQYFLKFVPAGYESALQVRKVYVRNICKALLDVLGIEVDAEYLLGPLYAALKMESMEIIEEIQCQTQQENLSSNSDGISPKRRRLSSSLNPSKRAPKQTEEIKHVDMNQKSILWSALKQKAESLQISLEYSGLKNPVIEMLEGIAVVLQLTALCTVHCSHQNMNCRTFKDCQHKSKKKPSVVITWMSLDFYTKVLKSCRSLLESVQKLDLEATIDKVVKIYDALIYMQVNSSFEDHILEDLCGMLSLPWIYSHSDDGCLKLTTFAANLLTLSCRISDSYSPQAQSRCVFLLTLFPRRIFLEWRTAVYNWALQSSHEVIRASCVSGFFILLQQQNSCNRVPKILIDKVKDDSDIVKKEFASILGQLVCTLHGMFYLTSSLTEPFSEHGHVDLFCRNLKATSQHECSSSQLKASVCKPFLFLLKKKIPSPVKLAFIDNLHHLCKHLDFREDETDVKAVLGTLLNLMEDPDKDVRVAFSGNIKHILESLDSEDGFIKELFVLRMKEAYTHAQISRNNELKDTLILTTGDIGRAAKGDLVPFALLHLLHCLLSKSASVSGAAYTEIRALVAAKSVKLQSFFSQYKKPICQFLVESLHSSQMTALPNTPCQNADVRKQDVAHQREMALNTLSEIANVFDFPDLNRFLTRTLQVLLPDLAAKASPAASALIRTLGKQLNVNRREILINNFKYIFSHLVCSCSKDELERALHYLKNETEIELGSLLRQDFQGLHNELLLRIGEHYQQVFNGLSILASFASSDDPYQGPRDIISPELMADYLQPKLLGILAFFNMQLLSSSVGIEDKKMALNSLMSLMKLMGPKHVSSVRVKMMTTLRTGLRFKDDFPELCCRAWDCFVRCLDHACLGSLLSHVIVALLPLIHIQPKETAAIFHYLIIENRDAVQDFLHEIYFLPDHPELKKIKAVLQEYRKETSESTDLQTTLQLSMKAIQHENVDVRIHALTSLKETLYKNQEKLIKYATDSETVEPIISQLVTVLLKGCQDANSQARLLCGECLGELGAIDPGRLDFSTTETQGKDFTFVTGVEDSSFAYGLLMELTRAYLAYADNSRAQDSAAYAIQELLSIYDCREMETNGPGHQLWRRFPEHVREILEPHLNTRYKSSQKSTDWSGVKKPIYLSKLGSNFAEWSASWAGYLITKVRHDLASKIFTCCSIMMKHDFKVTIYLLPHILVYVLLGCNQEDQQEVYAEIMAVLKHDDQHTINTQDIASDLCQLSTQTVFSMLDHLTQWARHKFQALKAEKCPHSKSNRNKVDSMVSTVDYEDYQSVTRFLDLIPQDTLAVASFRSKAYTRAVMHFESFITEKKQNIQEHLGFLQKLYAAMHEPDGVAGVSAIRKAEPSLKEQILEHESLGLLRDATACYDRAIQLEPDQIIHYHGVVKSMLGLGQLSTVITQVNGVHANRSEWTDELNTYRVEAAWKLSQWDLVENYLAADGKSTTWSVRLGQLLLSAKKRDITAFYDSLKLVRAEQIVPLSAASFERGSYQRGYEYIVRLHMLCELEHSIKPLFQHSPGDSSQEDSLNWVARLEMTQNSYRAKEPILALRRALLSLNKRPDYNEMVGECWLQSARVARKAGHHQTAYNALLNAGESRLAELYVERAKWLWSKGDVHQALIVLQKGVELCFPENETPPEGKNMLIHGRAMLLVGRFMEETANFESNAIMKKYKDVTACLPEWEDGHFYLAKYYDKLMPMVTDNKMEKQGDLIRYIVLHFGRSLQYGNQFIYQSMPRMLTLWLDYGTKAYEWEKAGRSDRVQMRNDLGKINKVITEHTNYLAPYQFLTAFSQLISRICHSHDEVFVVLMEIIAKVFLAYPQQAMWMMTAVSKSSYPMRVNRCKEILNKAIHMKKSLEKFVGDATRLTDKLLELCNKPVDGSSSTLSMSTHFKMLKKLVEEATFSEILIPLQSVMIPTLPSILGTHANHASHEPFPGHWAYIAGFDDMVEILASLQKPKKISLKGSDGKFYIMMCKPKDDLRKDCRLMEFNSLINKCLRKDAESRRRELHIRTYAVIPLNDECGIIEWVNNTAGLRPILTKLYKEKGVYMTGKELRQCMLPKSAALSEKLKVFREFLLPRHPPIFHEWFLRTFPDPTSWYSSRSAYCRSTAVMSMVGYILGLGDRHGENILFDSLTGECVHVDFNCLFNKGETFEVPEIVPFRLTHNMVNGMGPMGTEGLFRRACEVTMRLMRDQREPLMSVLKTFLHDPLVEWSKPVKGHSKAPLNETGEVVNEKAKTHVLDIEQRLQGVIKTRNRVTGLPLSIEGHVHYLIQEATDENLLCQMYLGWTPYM

Ki	SMILES
10 to 1000 nM	Nc1nn2cc(F)cnc2c1C(=O)Nc1cncc(F)c1N1CCC(C(=O)N2CCC(N3CCCC3)CC2)CC1 [I-G-59, 2-amino-6-fluoro-N-(5-fluoro-4-(4-(4-(pyrrolidin-1-yl)piperidine-1-carbonyl)piperidin-1-yl)pyridin-3-yl)pyrazolo[1,5-a]pyrimidine-3-carboxamide]
10 to 1000 nM	CN1CCC(C(=O)N2CCN(c3c(F)cncc3NC(=O)c3c(N)nn4cc(F)cnc34)CC2)CC1 [I-N-128, 2-amino-6-fluoro-N-(5-fluoro-4-(4-(1-methylpiperidine-4-carbonyl)piperazin-1-yl)pyridin-3-yl)pyrazolo[1,5-a]pyrimidine-3-carboxamide]
10 to 1000 nM	CC(C)N1CCCC1C(=O)N1CCN(c2c(F)cncc2NC(=O)c2c(N)nn3cc(F)cnc23)CC1 (stereo not shown) [I-N-205, 2-amino-6-fluoro-N-(5-fluoro-4-(4-(1-isopropylpyrrolidine-2-carbonyl)piperazin-1-yl)pyridin-3-yl)pyrazolo[1,5-a]pyrimidine-3-carboxamide]
10 to 1000 nM	Nc1nn2cc(F)cnc2c1C(=O)Nc1cncc(F)c1N1CCCC1 [I-N-246, 2-amino-6-fluoro-N-(5-fluoro-4-(pyrrolidin-1-yl)pyridin-3-yl)pyrazolo[1,5-a]pyrimidine-3-carboxamide]
10 to 1000 nM	Nc1nn2cc(Cl)cnc2c1C(=O)Nc1cnccc1C1CCN(C2COC2)CC1 [I-C-11, 2-amino-6-chloro-N-(4-(1-(oxetan-3-yl)piperidin-4-yl)pyridin-3-yl)pyrazolo[1,5-a]pyrimidine-3-carboxamide]
10 to 1000 nM	Cn1nccc1-c1ccncc1NC(=O)c1c(N)nn2cc(F)cnc12 [I-C-57, 2-amino-6-fluoro-N-(4-(1-methyl-1H-pyrazol-5-yl)pyridin-3-yl)pyrazolo[1,5-a]pyrimidine-3-carboxamide]
10 to 1000 nM	Nc1nn2cc(F)cnc2c1C(=O)Nc1cncc(F)c1N1CCN(C(=O)C2CNCCO2)CC1 (stereo not shown) [I-N-172, 2-amino-6-fluoro-N-(5-fluoro-4-(4-(morpholine-2-carbonyl)piperazin-1-yl)pyridin-3-yl)pyrazolo[1,5-a]pyrimidine-3-carboxamide]
10 to 1000 nM	CC(C#N)c1cnc2c(C(=O)Nc3cnccc3N3CCN(C)CC3)c(N)nn2c1 (stereo not shown) [I-N-78, 2-amino-6-(1-cyanoethyl)-N-(4-(4-methylpiperazin-1-yl)pyridin-3-yl)pyrazolo[1,5-a]pyrimidine-3-carboxamide]
10 to 1000 nM	CN1CCC(NC(=O)C2CCN(c3c(F)cncc3NC(=O)c3c(N)nn4cc(F)cnc34)CC2)C1 (stereo not shown) [I-G-24, 2-amino-6-fluoro-N-(5-fluoro-4-(4-((1-methylpyrrolidin-3-yl)carbamoyl)piperidin-1-yl)pyridin-3-yl)pyrazolo[1,5-a]pyrimidine-3-carboxamide]
10 to 1000 nM	Nc1nn2cc(F)cnc2c1C(=O)Nc1cncc2c1CCNC2 [I-C-7, 2-amino-6-fluoro-N-(5,6,7,8-tetrahydro-2,7-naphthyridin-4-yl)pyrazolo[1,5-a]pyrimidine-3-carboxamide]
10 to 1000 nM	Nc1nn2cc(F)cnc2c1C(=O)Nc1cnccc1N1CCC(S(=O)(=O)C2COC2)CC1 [I-N-200, 2-amino-6-fluoro-N-(4-(4-(oxetan-3-ylsulfonyl)piperidin-1-yl)pyridin-3-yl)pyrazolo[1,5-a]pyrimidine-3-carboxamide]
10 to 1000 nM	CN1CCC[C@H]1COc1ccncc1NC(=O)c1c(N)nn2cc(Cl)cnc12 [I-O-50, (S)-2-amino-6-chloro-N-(4-((1-methylpyrrolidin-2-yl)methoxy)pyridin-3-yl)pyrazolo[1,5-a]pyrimidine-3-carboxamide]
10 to 1000 nM	Nc1nn2cc(F)cnc2c1C(=O)Nc1cnccc1N1CCC2(CCNC2)CC1 [I-N-255, N-(4-(2,8-diazaspiro[4.5]decan-8-yl)pyridin-3-yl)-2-amino-6-fluoropyrazolo[1,5-a]pyrimidine-3-carboxamide]
10 to 1000 nM	Nc1nn2cc(Cl)cnc2c1C(=O)Nc1cnccc1N1CCC(N2CCOCC2)CC1 [I-N-104, 2-amino-6-chloro-N-(4-(4-morpholinopiperidin-1-yl)pyridin-3-yl)pyrazolo[1,5-a]pyrimidine-3-carboxamide]
< 10 nM	N#CCc1cnc2c(C(=O)Nc3cnccc3OC3CCCC3)c(N)nn2c1 [I-O-43, 2-amino-6-(cyanomethyl)-N-(4-(cyclopentyloxy)pyridin-3-yl)pyrazolo[1,5-a]pyrimidine-3-carboxamide]
10 to 1000 nM	CN1CCN(c2c(NC(=O)c3c(N)nn4cc(F)cnc34)cncc2C2CC2)CC1 [I-N-5, 2-amino-N-(5-cyclopropyl-4-(4-methylpiperazin-1-yl)pyridin-3-yl)-6-fluoropyrazolo[1,5-a]pyrimidine-3-carboxamide]
< 10 nM	N#CCc1cnc2c(C(=O)Nc3cnccc3OC3CCNCC3)c(N)nn2c1 [I-O-84, 2-amino-6-(cyanomethyl)-N-(4-(piperidin-4-yloxy)pyridin-3-yl)pyrazolo[1,5-a]pyrimidine-3-carboxamide]

Ki	SMILES
10 to 1000 nM	CN1CCC(C(=O)N2CCC(c3ccncc3NC(=O)c3c(N)nn4cc(F)cnc34)CC2)CC1 [I-C-16, 2-amino-6-fluoro-N-(4-(1-(1-methylpiperidine-4-carbonyl)piperidin-4-yl)pyridin-3-yl)pyrazolo[1,5-a]pyrimidine-3-carboxamide]
10 to 1000 nM	Nc1nn2cc(Cl)cnc2c1C(=O)Nc1cnccc1N1CCN(C2CC2)CC1 [I-N-64, 2-amino-6-chloro-N-(4-(4-cyclopropylpiperazin-1-yl)pyridin-3-yl)pyrazolo[1,5-a]pyrimidine-3-carboxamide]
10 to 1000 nM	CCN1CCCC1C(=O)N1CCN(c2c(F)cncc2NC(=O)c2c(N)nn3cc(F)cnc23)CC1 (stereo not shown) [I-N-185, 2-amino-N-(4-(4-(1-ethylpyrrolidine-2-carbonyl)piperazin-1-yl)-5-fluoropyridin-3-yl)-6-fluoropyrazolo[1,5-a]pyrimidine-3-carboxamide]
10 to 1000 nM	Cc1nncn1-c1ccncc1NC(=O)c1c(N)nn2cc(F)cnc12 [I-N-263, 2-amino-6-fluoro-N-(4-(3-methyl-4H-1,2,4-triazol-4-yl)pyridin-3-yl)pyrazolo[1,5-a]pyrimidine-3-carboxamide]
10 to 1000 nM	CN(C)C1CN(C2CCN(c3ccncc3NC(=O)c3c(N)nn4cc(Cl)cnc34)CC2)C1 [I-N-94, 2-amino-6-chloro-N-(4-(4-(3-(dimethylamino)azetidin-1-yl)piperidin-1-yl)pyridin-3-yl)pyrazolo[1,5-a]pyrimidine-3-carboxamide]
< 10 nM	N#CCc1cnc2c(C(=O)Nc3cnccc3OCCCO)c(N)nn2c1 [I-O-40, 2-amino-6-(cyanomethyl)-N-(4-(3-hydroxypropoxy)pyridin-3-yl)pyrazolo[1,5-a]pyrimidine-3-carboxamide]
10 to 1000 nM	CN1CCN(CC2CCN(c3c(F)cncc3NC(=O)c3c(N)nn4cc(F)cnc34)CC2)CC1 [I-N-150, 2-amino-6-fluoro-N-(5-fluoro-4-(4-((4-methylpiperazin-1-yl)methyl)piperidin-1-yl)pyridin-3-yl)pyrazolo[1,5-a]pyrimidine-3-carboxamide]
10 to 1000 nM	COC(=O)[C@H]1CC[C@H](Oc2ccncc2NC(=O)c2c(N)nn3cc(F)cnc23)CC1 [I-O-13, (1r,4)-methyl 4-((3-(2-amino-6-fluoropyrazolo[1,5-a]pyrimidine-3-carboxamido)pyridin-4-yl)oxy)cyclohexanecarboxylate]
10 to 1000 nM	Nc1nn2cc(F)cnc2c1C(=O)Nc1cncc(F)c1N1CCC(C(=O)N2CCC(N3CCCCC3)C2)CC1 (stereo not shown) [I-G-64, 2-amino-6-fluoro-N-(5-fluoro-4-(4-(3-(piperidin-1-yl)pyrrolidine-1-carbonyl)piperidin-1-yl)pyridin-3-yl)pyrazolo[1,5-a]pyrimidine-3-carboxamide]
10 to 1000 nM	Cc1ccncc1-c1ccncc1NC(=O)c1c(N)nn2cc(F)cnc12 [I-C-30, 2-amino-6-fluoro-N-(4-methyl-[3,4′-bipyridin]-3′-yl)pyrazolo[1,5-a]pyrimidine-3-carboxamide]
10 to 1000 nM	CN(C)CCOc1cc(C(F)(F)F)ncc1NC(=O)c1c(N)nn2cc(Cl)cnc12 [I-O-71, 2-amino-6-chloro-N-(4-(2-(dimethylamino)ethoxy)-6-(trifluoromethyl)pyridin-3-yl)pyrazolo[1,5-a]pyrimidine-3-carboxamide]
10 to 1000 nM	Nc1nn2cc(F)cnc2c1C(=O)Nc1cnccc1-c1cccnc1 [I-C-15, N-([3,4′-bipyridin]-3′-yl)-2-amino-6-fluoropyrazolo[1,5-a]pyrimidine-3-carboxamide]
< 10 nM	N#CCc1cnc2c(C(=O)Nc3cnccc3OC3CCCCC3)c(N)nn2c1 [I-O-39, 2-amino-6-(cyanomethyl)-N-(4-(cyclohexyloxy)pyridin-3-yl)pyrazolo[1,5-a]pyrimidine-3-carboxamide]
10 to 1000 nM	CC(=O)N1CC2(CCN(c3ccncc3NC(=O)c3c(N)nn4cc(F)cnc34)CC2)C1 [I-N-251, N-(4-(2-acetyl-2,7-diazaspiro[3.5]nonan-7-yl)pyridin-3-yl)-2-amino-6-fluoropyrazolo[1,5-a]pyrimidine-3-carboxamide]
10 to 1000 nM	Nc1nn2cc(F)cnc2c1C(=O)Nc1cnccc1C1CCOC1 (stereo not shown) [I-C-75, 2-amino-6-fluoro-N-(4-(tetrahydrofuran-3-yl)pyridin-3-yl)pyrazolo[1,5-a]pyrimidine-3-carboxamide]
< 10 nM	N#CCc1cnc2c(C(=O)Nc3cnccc3OC3COC3)c(N)nn2c1 [I-O-38, 2-amino-6-(cyanomethyl)-N-(4-(oxetan-3-yloxy)pyridin-3-yl)pyrazolo[1,5-a]pyrimidine-3-carboxamide]

SMILES	Ki
Cc1cncc(NC(=O)c2c(N)nn3cc(F)cnc23)c1N1CCN(C2CCOCC2)CC1 [I-N-123, 2-amino-6-fluoro-N-(5-methyl-4-(4-(tetrahydro-2H-pyran-4-yl)piperazin-1-yl)pyridin-3-yl)pyrazolo[1,5-a]pyrimidine-3-carboxamide]	10 to 1000 nM
